In ChEMBL document CHEMBL1201862, “PubChem BioAssay data set” (2004):
Each block holds one compound with its values, some of them ahead of it. Activity calls are given as the source filed them.

Experiments:
[1] = NIH-3T3 fibroblast cytotoxicity, dose response, cytotoxicity control, cell-based, fluorescence, Alamar Blue, secondary assay (AID 2327); format: functional;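 further: NIH-3T3 mouse fibroblasts cultured with fluconazole at 8 µg/mL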
[2] = target: FAD-linked sulfhydryl oxidase ALR (Homo sapiens, UniProt P55789); assay: inhibitors of human ALR sulfhydryl oxidase, dose response, biochemical, H2O2 detection, luminescence, cherry-pick (AID 493248)
Sequence of FAD-linked sulfhydryl oxidase ALR (P55789 whole entry): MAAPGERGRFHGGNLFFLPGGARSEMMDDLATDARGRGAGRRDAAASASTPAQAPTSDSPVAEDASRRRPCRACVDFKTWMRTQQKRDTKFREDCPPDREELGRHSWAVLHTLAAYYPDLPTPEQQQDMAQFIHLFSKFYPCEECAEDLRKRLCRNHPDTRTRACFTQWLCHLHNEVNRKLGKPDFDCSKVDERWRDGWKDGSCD

[3] = HEp-2 cell cytotoxicity, dose response, cytotoxicity control for RSV inhibitor project, HTS (AID 2410); format: functional; details: human respiratory syncytial virus
[4] = target: Cytochrome P450 2C19 (Homo sapiens, UniProt P33261); assay: Cytochrome panel assay with activity outcomes. Panel member name: p450-cyp2c19 Compounds with AC50 equal or less than 10 uM are considered active; format: functional
Sequence of Cytochrome P450 2C19 (P33261 whole entry): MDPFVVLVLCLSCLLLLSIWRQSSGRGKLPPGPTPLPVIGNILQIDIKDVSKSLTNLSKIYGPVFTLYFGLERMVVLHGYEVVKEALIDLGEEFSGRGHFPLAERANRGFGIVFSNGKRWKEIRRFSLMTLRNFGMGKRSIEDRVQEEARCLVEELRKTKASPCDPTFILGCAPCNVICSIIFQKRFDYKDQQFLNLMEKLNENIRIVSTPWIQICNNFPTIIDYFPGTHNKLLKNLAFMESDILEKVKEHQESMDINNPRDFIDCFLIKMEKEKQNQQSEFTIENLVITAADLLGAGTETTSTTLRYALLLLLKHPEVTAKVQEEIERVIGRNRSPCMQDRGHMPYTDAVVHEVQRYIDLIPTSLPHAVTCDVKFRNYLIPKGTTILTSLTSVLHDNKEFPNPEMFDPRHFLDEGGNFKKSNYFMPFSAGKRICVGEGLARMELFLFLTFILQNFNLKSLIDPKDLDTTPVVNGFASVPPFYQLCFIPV

[5] = target: Cytochrome P450 3A4 (Homo sapiens, UniProt P08684);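 further: CYP3A4 tested as one member of a cytochrome P450 panel screen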
Sequence of Cytochrome P450 3A4 (P08684 whole entry): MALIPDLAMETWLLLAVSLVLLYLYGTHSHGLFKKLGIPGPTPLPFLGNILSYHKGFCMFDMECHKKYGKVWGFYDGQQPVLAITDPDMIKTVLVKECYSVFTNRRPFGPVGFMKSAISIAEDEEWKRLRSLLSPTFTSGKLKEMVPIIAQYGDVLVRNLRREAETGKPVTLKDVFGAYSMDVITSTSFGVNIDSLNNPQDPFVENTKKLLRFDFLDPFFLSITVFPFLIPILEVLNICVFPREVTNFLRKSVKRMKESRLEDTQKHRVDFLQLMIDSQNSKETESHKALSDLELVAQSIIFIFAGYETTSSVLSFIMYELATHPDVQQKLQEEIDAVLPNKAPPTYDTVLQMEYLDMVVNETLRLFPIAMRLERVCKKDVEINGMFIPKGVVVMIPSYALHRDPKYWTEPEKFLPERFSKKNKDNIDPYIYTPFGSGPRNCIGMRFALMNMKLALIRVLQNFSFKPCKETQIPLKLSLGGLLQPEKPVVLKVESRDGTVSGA

[6] = target: T1, Corticotropin-releasing factor receptor 2/Corticotropin-releasing factor-binding protein (Homo sapiens, UniProt P24387+Q13324); assay: Dose Response confirmation of uHTS hits for small molecule antagonists of the CRF-binding protein and CRF-R2 receptor complex.; format: functional; details: read-out: IC50_Mean
T1 sequence (Q13324 whole entry): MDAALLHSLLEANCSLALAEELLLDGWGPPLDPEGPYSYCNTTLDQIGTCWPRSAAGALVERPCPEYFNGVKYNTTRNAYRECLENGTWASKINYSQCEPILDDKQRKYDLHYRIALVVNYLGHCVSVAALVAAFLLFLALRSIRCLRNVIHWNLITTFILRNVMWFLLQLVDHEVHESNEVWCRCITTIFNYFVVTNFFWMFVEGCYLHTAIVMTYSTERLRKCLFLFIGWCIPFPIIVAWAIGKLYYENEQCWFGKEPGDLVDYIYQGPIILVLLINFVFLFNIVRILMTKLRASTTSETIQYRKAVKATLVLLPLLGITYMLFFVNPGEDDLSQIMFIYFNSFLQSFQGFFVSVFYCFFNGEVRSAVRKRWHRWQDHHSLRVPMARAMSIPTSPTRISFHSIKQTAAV
T1 sequence (P24387 whole entry): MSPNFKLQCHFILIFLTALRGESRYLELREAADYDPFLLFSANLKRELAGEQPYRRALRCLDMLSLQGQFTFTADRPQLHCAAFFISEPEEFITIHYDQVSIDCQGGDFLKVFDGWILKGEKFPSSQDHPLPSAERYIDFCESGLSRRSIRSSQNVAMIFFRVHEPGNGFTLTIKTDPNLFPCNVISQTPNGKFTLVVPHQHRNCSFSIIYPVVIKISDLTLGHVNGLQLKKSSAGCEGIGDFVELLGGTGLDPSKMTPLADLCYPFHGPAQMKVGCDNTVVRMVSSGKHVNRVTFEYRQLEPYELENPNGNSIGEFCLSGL

[7] = target: T1, Corticotropin-releasing factor receptor 2/Corticotropin-releasing factor-binding protein; assay: activators of CRF receptor 2 with binding protein – uHTS hits, confirmation (AID 602473); format: functional; details: read-out: EC50_Mean
[8] = target: T2, Rac GTPase-activating protein 1 (Homo sapiens, UniProt Q9H0H5); assay: MgcRacGAP GTPase-activating activity inhibitors, confirmation, biochemical, ADP Hunter fluorescence, primary and confirmatory (AID 624330); format: functional
T2 sequence (Q9H0H5 whole entry): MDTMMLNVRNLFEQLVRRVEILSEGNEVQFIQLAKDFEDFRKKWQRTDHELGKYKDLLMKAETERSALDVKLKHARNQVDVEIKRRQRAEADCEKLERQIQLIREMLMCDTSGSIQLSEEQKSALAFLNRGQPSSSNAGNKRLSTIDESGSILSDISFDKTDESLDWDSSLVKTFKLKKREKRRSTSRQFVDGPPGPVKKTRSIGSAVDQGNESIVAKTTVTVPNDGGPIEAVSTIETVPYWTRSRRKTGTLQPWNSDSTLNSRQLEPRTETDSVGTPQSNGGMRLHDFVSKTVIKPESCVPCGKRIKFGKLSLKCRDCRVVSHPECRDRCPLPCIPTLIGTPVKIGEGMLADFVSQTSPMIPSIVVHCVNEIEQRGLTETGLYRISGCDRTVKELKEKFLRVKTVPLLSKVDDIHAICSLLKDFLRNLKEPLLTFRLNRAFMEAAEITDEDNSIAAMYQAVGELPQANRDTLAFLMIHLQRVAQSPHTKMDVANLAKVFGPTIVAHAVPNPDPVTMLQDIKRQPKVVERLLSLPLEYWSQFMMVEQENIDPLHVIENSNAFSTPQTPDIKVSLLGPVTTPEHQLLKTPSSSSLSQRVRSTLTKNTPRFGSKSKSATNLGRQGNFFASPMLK

[9] = target: Cytochrome P450 2C9 (Homo sapiens, UniProt P11712)
Sequence of Cytochrome P450 2C9 (P11712 whole entry): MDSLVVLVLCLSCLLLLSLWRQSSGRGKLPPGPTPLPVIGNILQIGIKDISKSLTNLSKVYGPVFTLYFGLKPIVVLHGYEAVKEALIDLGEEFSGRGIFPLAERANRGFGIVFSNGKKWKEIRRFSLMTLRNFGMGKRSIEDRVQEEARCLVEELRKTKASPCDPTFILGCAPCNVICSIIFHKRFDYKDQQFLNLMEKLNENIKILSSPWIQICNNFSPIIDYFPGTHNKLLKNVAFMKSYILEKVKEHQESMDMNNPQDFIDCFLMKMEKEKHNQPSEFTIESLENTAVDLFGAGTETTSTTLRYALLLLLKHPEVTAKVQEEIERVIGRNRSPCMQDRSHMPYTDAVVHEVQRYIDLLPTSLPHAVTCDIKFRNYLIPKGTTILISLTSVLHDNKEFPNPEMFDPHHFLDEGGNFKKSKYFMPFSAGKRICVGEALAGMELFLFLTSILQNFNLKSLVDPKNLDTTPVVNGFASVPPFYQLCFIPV

[10] = target: Cytochrome P450 2D6 (Homo sapiens, UniProt P10635);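 further: CYP2D6 member of a cytochrome P450 panel assay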
Sequence of Cytochrome P450 2D6 (P10635 whole entry, the tested form may be a part): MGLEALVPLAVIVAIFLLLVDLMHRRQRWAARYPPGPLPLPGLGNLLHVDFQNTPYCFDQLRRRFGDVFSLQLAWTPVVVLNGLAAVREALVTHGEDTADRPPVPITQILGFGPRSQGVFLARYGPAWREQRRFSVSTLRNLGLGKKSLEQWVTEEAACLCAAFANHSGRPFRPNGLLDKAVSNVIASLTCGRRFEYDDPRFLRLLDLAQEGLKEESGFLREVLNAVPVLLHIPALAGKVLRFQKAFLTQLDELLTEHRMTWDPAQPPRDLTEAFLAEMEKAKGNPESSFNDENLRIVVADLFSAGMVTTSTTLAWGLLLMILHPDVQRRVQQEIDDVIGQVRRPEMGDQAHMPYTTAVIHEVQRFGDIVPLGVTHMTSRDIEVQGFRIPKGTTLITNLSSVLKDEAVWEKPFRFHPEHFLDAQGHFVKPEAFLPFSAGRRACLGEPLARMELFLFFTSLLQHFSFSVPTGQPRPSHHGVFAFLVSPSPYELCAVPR

[11] = inhibitors of HIV Env-driven cell fusion, dose response, cherry-pick (AID 652057); format: functional, cell-based
[12] = target: Paired box protein Pax-8 (Homo sapiens, UniProt Q06710); assay: inhibitors of PAX8-driven TPO luciferase reporter, dose response, RMG-I cells, cherry-pick (AID 687027); format: functional, cell-based;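 further: luciferase reporter driven by Pax8 target thyroperoxidase promoter measured by SteadyGlo luminescence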
Sequence of Paired box protein Pax-8 (Q06710 whole entry): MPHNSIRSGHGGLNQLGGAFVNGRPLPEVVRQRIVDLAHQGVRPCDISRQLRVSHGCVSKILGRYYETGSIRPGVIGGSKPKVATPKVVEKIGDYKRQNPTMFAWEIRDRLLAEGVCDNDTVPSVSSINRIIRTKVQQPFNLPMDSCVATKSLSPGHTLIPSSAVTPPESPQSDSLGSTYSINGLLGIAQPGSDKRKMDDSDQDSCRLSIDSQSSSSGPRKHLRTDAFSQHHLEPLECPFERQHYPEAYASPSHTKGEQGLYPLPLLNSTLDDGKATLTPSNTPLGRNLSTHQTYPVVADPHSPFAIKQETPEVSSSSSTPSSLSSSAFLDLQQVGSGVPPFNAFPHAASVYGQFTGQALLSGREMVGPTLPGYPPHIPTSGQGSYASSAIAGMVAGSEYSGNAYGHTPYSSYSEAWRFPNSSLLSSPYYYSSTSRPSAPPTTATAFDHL

SMILES: CC(C)NC(=O)COC(=O)c1cccc(NS(=O)(=O)/C=C/c2ccccc2)c1
EC50 [1]: > 160 µM (inactive)

SMILES: COc1cc(CNc2ncc(-c3ccc(Cl)cc3)n2C)cc(OC)c1OC
AC50 [2]: 4.59 µM (active)

SMILES: C=CCOc1ccc(CN(C)CC(O)COc2cccc3ccccc23)cc1 (configuration not stated)
CC50 [3]: 26.1 µM (active)

SMILES: Cc1ccc(NC(=O)CCc2c(C)nc3ncnn3c2C)nc1
AC50 [4]: inconclusive
AC50 [5]: 15.8 µM (inconclusive)

SMILES: Cc1cc(Nc2nc3ccccc3nc2O)n(-c2ccccc2)n1
CC50 [3]: 16.6 µM (active)

SMILES: Cc1ccc(NC2CCCN(C(=O)c3snnc3C)C2)cc1C (configuration not stated)
AC50 [2]: 1.64 µM (active)

SMILES: COc1ccc(-n2c(=O)cnc3cnc(N(C)C)nc32)cc1
AC50 ([4]; read-out: AC50): 39.8 µM (inconclusive)
AC50 [5]: 39.8 µM (inconclusive)

SMILES: Cc1ccc(NC2CCCN(C(=O)C3CCCC3)C2)cc1C (configuration not stated)
AC50 [2]: 4.78 µM (active)

SMILES: CCOC(=O)c1[nH]c(C)c(C(=O)N2CCN(c3cccc(Cl)c3)CC2)c1C
CC50 [3]: 20.9 µM (active)

SMILES: Cc1nc2cnc(N3CCOCC3)nc2n(Cc2cccs2)c1=O
AC50 [9]: 15.8 µM (inconclusive)
AC50 [10]: 39.8 µM (inconclusive)
AC50 [5]: 7.94 µM (inconclusive)

SMILES: Cc1ccc2nc(N=C(N)NC(=O)N3c4ccccc4Sc4ccccc43)nc(C)c2c1
CC50 [3]: 12.8 µM (active)

SMILES: COc1ccc(CNc2ncnc3ccc(-c4ccc5c(c4)OCO5)cc23)c(OC)c1
AC50 [10]: 2.51 µM (active)
AC50 [5]: 0.794 µM (active)

SMILES: CC(C)N1CCN(Cc2nc(-c3ccccc3)cs2)CC1CCO (configuration not stated)
IC50 [6]: > 47.1 µM (inactive)
EC50 [7]: > 53 µM (inactive)

SMILES: C[C@H]1CN([C@@H](C)CO)S(=O)(=O)c2ccc(-c3cccc(F)c3)cc2O[C@H]1CN(C)S(=O)(=O)c1ccccc1
AC50 [11]: 25.7 µM (active)

SMILES: CC/C(=N\NC(N)=O)c1ccc(OC(F)F)cc1
CC50 [3]: 27.5 µM (active)

The remaining lines, values ahead:

IC50 [6]: > 47.1 µM (inactive)
EC50 [7]: > 53 µM (inactive)
SMILES: COc1ccc(C(=O)Nc2ccc(C3CC3(Cl)Cl)cc2)cc1 (configuration not stated)

IC50 [8]: 26.8 µM (active)
AC50 [2]: 3.13 µM (active)
SMILES: CC(C)(C)N1C(=O)c2ccc(C(=O)Nc3ccc(O)cc3)cc2C1=O

IC50 [6]: > 47.1 µM (inactive)
EC50 [7]: > 53 µM (inactive)
SMILES: CC(=O)Nc1ccc(OCC(O)CN2C(C)(C)CC(O)CC2(C)C)cc1 (configuration not stated)

IC50 [6]: > 47.1 µM (inactive)
EC50 [7]: > 53 µM (inactive)
SMILES: COc1ccc(NC(=O)CN(C)C(=O)c2cccc(S(=O)(=O)N3CCN(c4ccc(F)cc4)CC3)c2)cc1

IC50 [6]: > 47.1 µM (inactive)
EC50 [7]: > 53 µM (inactive)
SMILES: O=C(CSc1nc(-c2ccco2)cc(C(F)(F)F)n1)NCCCN1CCOCC1

AC50 [12]: 15.9 µM (active)
SMILES: O=C(C[C@@H]1C[C@H]2c3cc(NC(=O)Nc4ccc(C(F)(F)F)cc4)ccc3O[C@H]2[C@H](CO)O1)NCCc1ccccc1
